# In patent US11479551B2, “MTA-cooperative PRMT5 inhibitors” (Mirati Therapeutics, Inc., priority 2019, dated 2022):
# pIC50: −log10 of the molar value. Where two headings read alike, the source gives them in different places.
# How the values were obtained:
# [1] = tested on: HCT116 homozygous MTAP knockout cells; experiment: Proliferation assay (CellTiter-Glo, 10 days of treatment), HCT116 MTAP knockout; format: cell-based; settings: read-out: Proliferation HCT116MTAP_KO IC50
# Procedure, shortened: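 Viability of the CRISPR/Cas9 homozygous MTAP-knockout HCT116 line was read by CellTiter-Glo after 10 days of PRMT5 inhibitor exposure, with IC50 derived from the dose response. Compound was given the day after seeding and renewed at an identical concentration when cells were split 1:10 on day 6.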
# [2] = tested on: PRMT5-dependent Symmetric Di-methyl Arginine signal in HCT116 parental cells; experiment: SYM11 In-Cell Western, HCT116 parental; format: cell-based; settings: 4 days of treatment, SYM11/DRAQ5 ratio
# Description: (§1) Control samples were analyzed in parallel.
# Briefly, on Day 0, 2,000 HCT116 parental or HCT116 homozygous MTAP knockout cells were seeded in 96 well plates in McCoy's 5A supplemented with 10% fetal bovine serum and pen/strep and the cells were incubated overnight at 37° C. plus 5% CO2. The following day, cells were treated with DMSO vehicle control or a dose response of PRMT5 inhibitors, and incubated at 37° C. plus 5% CO^2 for four days.
# After 4 days of treatment, the cells were fixed by adding 50 μl of 4% paraformaldehyde solution to each well and the cells were incubated for 20 min at room temperature. The paraformaldehyde solution was removed, 150 μl of ice-cold methanol was added and the plate was placed −20° C. for 10 minutes. The methanol was removed, 150 μl of Odyssey Blocking buffer+0.05% Tween20 was added and the plate was incubated at room temperature with shaking for one hour.
# The primary SYM11 antibody solution was removed by aspiration and the wells were washed three consecutive times with phosphate buffered saline containing 0.1% Tween-20 (PBST).
# The secondary antibody solution was removed by aspiration and the wells were washed three consecutive times with PB ST.
# The SYM11 signal and the DRAQ5 signal were quantified using a Li-Cor Odyssey machine reading at […], respectively. The SYM11/DRAQ5 ratio was used to calculate the inhibition of Symmetric Dimethyl Arginine as percent of DMSO control.
# [3] = tested on: PRMT5-dependent Symmetric Di-methyl Arginine signal in HCT116 homozygous MTAP knockout cells; experiment: SYM11 In-Cell Western, HCT116 MTAP knockout; format: cell-based
# HCT116 parental cells = experiment: Proliferation assay (CellTiter-Glo, 10 days of treatment), HCT116 parental; format: cell-based
# Description: as §1
# Briefly, on Day 0, 250 HCT116 parental or HCT116 homozygous MTAP knockout cell were seeded in 96 well plates in McCoy's 5A supplemented with 10% fetal bovine serum and pen/strep and the cells were incubated overnight at 37° C. plus 5% CO2.
# The following day, cells were treated with DMSO vehicle control or a dose response of PRMT5 inhibitors and incubated at 37 C plus 5% CO2 for five days. On Day 6, the cells were trypsinized and split 1:10 into new 96-well plates with fresh medium containing the same concentration of PRMT5 inhibitor and incubated for an additional 5 days at 37° C. plus 5% CO^2.
# On Day 11, the viability of the cells was measured using a CTG assay kit (CellTiter-Glo; Promega cat.no G7573) in accordance with the manufacturer's instructions. The IC50 values for each compound after 10 days of treatment were calculated using GraphPad PRISM software.
# PRMT5/MEP50 complex [4] = biological target: T1, PRMT5/MEP50 complex (Homo sapiens (Human), UniProt O14744); experiment: PRMT5:MEP50 HotSpot Assay (full-length histone H2A substrate, plus and minus MTA); format: biochemical; settings: in the presence of 2 μM MTA
# Procedure, shortened: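 Tritium incorporated into recombinant full-length histone H2A was counted by scintillation after stopped reactions were captured on filter paper.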
# PRMT5/MEP50 complex [5] = biological target: T1, PRMT5/MEP50 complex; experiment: PRMT5:MEP50 FlashPlate Assay (histone H4 peptide substrate, plus and minus MTA); format: biochemical; settings: for IC50: IC50 + 2 μM MTA (nM), in the presence of 2 μM MTA; for pIC50: in the absence of MTA, read-out: IC50
# Description: The PRMT5 inhibitory activity of compounds of the present invention was determined using either a PRMT5:MEP50 FlashPlate Assay (Reaction Biology Corporation) or a PRMT5:MEP50 HotSpot Assay (Reaction Biology Corporation).
# 1. PRMT5:MEP50 FlashPlate Assay
# [6] = HCT116 homozygous MTAP knockout cells, 4 days of treatment, SYM11/DRAQ5 ratio, read-out: In-cell-Western (SYM11) HCT116 MTAP_KO IC50
# [7] = Homo sapiens, HCT-116, 96 h, HCT116 homozygous MTAP knockout cells, 4 days of treatment, SYM11/DRAQ5 ratio, read-out: In-cell-Western (SYM11) HCT116 MTAP_KO IC50
# T1 sequence (O14744 2-637): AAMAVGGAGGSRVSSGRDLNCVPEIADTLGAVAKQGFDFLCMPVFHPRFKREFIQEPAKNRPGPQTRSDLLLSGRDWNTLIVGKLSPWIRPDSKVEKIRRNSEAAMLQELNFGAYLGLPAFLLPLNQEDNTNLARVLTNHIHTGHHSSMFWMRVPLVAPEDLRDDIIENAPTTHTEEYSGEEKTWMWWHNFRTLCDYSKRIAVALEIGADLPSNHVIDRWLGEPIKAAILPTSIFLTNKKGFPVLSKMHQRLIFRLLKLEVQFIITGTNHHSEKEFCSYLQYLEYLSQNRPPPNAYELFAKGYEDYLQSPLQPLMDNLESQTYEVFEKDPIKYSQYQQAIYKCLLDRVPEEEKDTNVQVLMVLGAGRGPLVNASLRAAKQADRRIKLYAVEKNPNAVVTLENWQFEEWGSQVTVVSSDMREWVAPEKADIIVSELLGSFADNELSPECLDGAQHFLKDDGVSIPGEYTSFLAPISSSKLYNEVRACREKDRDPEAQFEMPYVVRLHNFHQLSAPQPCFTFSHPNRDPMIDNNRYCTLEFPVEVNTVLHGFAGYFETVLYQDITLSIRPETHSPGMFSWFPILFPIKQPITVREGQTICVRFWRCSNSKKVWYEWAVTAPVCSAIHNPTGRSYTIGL
# T1 sequence (Q9BQA1 2-342 partner): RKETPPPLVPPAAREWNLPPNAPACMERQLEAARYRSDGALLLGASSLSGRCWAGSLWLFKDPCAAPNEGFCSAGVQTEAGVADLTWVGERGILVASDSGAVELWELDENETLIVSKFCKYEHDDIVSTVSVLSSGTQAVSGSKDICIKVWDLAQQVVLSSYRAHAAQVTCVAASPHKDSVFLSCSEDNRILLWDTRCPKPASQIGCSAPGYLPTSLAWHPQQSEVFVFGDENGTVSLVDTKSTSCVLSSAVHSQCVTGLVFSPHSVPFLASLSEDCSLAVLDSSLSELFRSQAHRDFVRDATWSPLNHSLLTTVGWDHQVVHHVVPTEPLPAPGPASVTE
SMILES,"pIC50 ([2]; Homo sapiens, HCT-116, 96 h)","pIC50 (HCT116 parental cells; Homo sapiens, HCT-116, 240 h)","pIC50 ([1]; Homo sapiens, HCT-116, 240 h)","pIC50 [3, 7]",pIC50 (PRMT5/MEP50 complex [4]; IC50 + 2 μM MTA),further results
"CC(N)c1n[nH]c(=O)c2ccc(-c3cnn(C)c3-c3ccc4ccccc4c3C#N)cc12 (single isomer, unassigned) [Example 9-5, 2-[4-[4-(1-aminoethyl)-1-oxo-2H-phthalazin-6-yl]-2-methyl-pyrazol-3-yl]naphthalene-1-carbonitrile]",< 6.00,5.19,,,,"pIC50 [1]: 6.90; pIC50 [3, 6]: 7.38"
"Cn1ncc(-c2ccc3c(=O)[nH]nc(CN)c3c2)c1-c1c(F)cc2ccccc2c1C#N (single isomer, unassigned) [Example 16-1]",,,,,,"pIC50 [2]: 6.50; pIC50 [3, 6]: 8.70; pIC50 (PRMT5/MEP50 complex [4]; read-out: IC50 + 2 μM MTA): 7.42; pIC50 (HCT116 parental cells): 6.12"
"COc1ccc(C#N)c(-c2c(-c3ccc4c(=O)[nH]nc(CN)c4c3)cnn2C)c1 [Example 4-104, 2-(4-(4-(aminomethyl)-1-oxo-1,2-dihydrophthalazin-6-yl)-1-methyl-1H-pyrazol-5-yl)-4-methoxybenzonitrile]",5.48,,5.27,6.41,6.10,IC50 (PRMT5/MEP50 complex [5]): 0.5 nM; pIC50 (PRMT5/MEP50 complex [5]): 7.55
"Cc1ccc(C#N)c(-c2c(-c3ccc4c(=O)[nH]nc(CN)c4c3)cnn2C)c1 [Example 4-105, 2-(4-(4-(aminomethyl)-1-oxo-1,2-dihydrophthalazin-6-yl)-1-methyl-1H-pyrazol-5-yl)-4-methylbenzonitrile]",5.00,,5.86,6.33,6.00,IC50 (PRMT5/MEP50 complex [5]): 1.8 nM; pIC50 (PRMT5/MEP50 complex [5]): 7.15
"Cc1ccc(-c2c(-c3ccc4c(=O)[nH]nc(CN)c4c3)cnn2C)c(C#N)c1 [Example 4-106, 2-(4-(4-(aminomethyl)-1-oxo-1,2-dihydrophthalazin-6-yl)-1-methyl-1H-pyrazol-5-yl)-5-methylbenzonitrile]",5.48,,5.80,6.58,6.09,IC50 (PRMT5/MEP50 complex [5]): 0.5 nM; pIC50 (PRMT5/MEP50 complex [5]): 7.25
"COc1cccc(-c2c(-c3ccc4c(=O)[nH]nc(CN)c4c3)cnn2C)c1C#N [Example 4-107, 2-(4-(4-(aminomethyl)-1-oxo-1,2-dihydrophthalazin-6-yl)-1-methyl-1H-pyrazol-5-yl)-6-methoxybenzonitrile]",5.00,,5.98,7.51,6.12,IC50 (PRMT5/MEP50 complex [5]): 0.5 nM; pIC50 (PRMT5/MEP50 complex [5]): 7.43
"CCc1c(Cl)ccc(-c2c(-c3ccc4c(=O)[nH]nc(CN)c4c3)cnn2C)c1C#N [Example 4-199, 6-(4-(4-(aminomethyl)-1-oxo-1,2-dihydrophthalazin-6-yl)-1-methyl-1H-pyrazol-5-yl)-3-chloro-2-ethylbenzonitrile]",,5.05,6.92,8.70,6.56,
"CCc1c(OC)ccc(-c2c(-c3ccc4c(=O)[nH]nc(CN)c4c3)cnn2C)c1C#N [Example 4-201, 2-(4-(4-(aminomethyl)-1-oxo-1,2-dihydrophthalazin-6-yl)-1-methyl-1H-pyrazol-5-yl)-6-ethyl-5-methoxybenzonitrile]",,< 5.00,6.81,7.80,6.02,
"Cn1ncc(-c2ccc3c(=O)[nH]nc(CN)c3c2)c1-c1c(F)cc2ccccc2c1C#N [Example 4-203, 2-(4-(4-(aminomethyl)-1-oxo-1,2-dihydrophthalazin-6-yl)-1-methyl-1H-pyrazol-5-yl)-3-fluoro-1-naphthonitrile]",6.04,5.92,7.72,8.70,,
"COc1cccc2c(C#N)c(-c3c(-c4ccc5c(=O)[nH]nc(CN)c5c4)cnn3C)ccc12 [Example 4-204, 2-(4-(4-(aminomethyl)-1-oxo-1,2-dihydrophthalazin-6-yl)-1-methyl-1H-pyrazol-5-yl)-5-methoxy-1-naphthonitrile]",< 6.00,5.74,7.28,7.92,,
"Cn1ncc(-c2ccc3c(=O)[nH]nc(CN)c3c2)c1-c1cc(C(F)(F)F)cc(OC2CC2)c1C#N [Example 4-209, 2-(4-(4-(aminomethyl)-1-oxo-1,2-dihydrophthalazin-6-yl)-1-methyl-1H-pyrazol-5-yl)-6-cyclopropoxy-4-(trifluoromethyl)benzonitrile]",< 6.00,5.33,7.23,8.00,,
"Cn1ncc(-c2ccc3c(=O)[nH]nc(CN)c3c2)c1-c1cc(C#N)c2ccccc2c1F [Example 4-210, 3-(4-(4-(aminomethyl)-1-oxo-1,2-dihydrophthalazin-6-yl)-1-methyl-1H-pyrazol-5-yl)-4-fluoro-1-naphthonitrile]",< 6.00,5.86,6.38,8.10,,
"Cn1ncc(-c2ccc3c(=O)[nH]nc(CN)c3c2)c1-c1c(Cl)cc2ccccc2c1C#N [Example 4-215, 2-(4-(4-(aminomethyl)-1-oxo-1,2-dihydrophthalazin-6-yl)-1-methyl-1H-pyrazol-5-yl)-3-chloro-1-naphthonitrile]",< 6.00,5.45,7.09,7.47,,
"Cn1ncc(-c2ccc3c(=O)[nH]nc(CN)c3c2)c1-c1ccc2ccc(F)cc2c1C#N [Example 4-217, 2-(4-(4-(aminomethyl)-1-oxo-1,2-dihydrophthalazin-6-yl)-1-methyl-1H-pyrazol-5-yl)-7-fluoro-1-naphthonitrile]",< 6.00,5.67,7.02,7.06,,
"Cn1ncc(-c2ccc3c(=O)[nH]nc(CN)c3c2)c1-c1ccc2c(F)cccc2c1C#N [Example 4-223, 2-(4-(4-(aminomethyl)-1-oxo-1,2-dihydrophthalazin-6-yl)-1-methyl-1H-pyrazol-5-yl)-5-fluoro-1-naphthonitrile]",6.12,5.11,7.12,7.92,,
"Cn1ncc(-c2ccc3c(=O)[nH]nc(CN)c3c2)c1-c1cc(F)c2ccccc2c1C#N [Example 4-224, 2-(4-(4-(aminomethyl)-1-oxo-1,2-dihydrophthalazin-6-yl)-1-methyl-1H-pyrazol-5-yl)-4-fluoro-1-naphthonitrile]",< 6.00,5.11,6.38,8.00,,
"Cn1ncc(-c2ccc3c(=O)[nH]nc(CN)c3c2)c1-c1c(F)c(Cl)cc(OC2CC2)c1C#N [Example 4-230, 2-(4-(4-(aminomethyl)-1-oxo-1,2-dihydrophthalazin-6-yl)-1-methyl-1H-pyrazol-5-yl)-4-chloro-6-cyclopropoxy-3-fluorobenzonitrile]",< 6.00,5.72,,,,"pIC50 ([3]; Homo sapiens, HCT-116, 96 h, read-out: In-cell-Western (SYM11) HCT116 MTAP_KO IC50, HCT116 homozygous MTAP knockout cells, 4 days of treatment, SYM11/DRAQ5 ratio): 8.22"
"CCOc1cccc(-c2c(-c3cc(C)c4c(=O)[nH]nc(CN)c4c3)cnn2C)c1C#N [Example 10-9, 2-(4-(4-(aminomethyl)-8-methyl-1-oxo-1,2-dihydrophthalazin-6-yl)-1-methyl-1H-pyrazol-5-yl)-6-ethoxybenzonitrile]",,5.01,6.31,8.10,5.71,
